The text below walks through data of PMC3773979 (Biochemistry, 2010).

Substitutions are numbered along the chain they refer to. Read-outs that look alike come from different tables or passages of the source. Marks after values point to notes of the source that are not given here.

Test [1] concerns the target Sp9 mutant DHFR (Streptococcus pneumoniae serotype 4, UniProt Q54801, A149T/E133A/H26Y/I100V/Q81H/Q91S). As to conditions: pH 7.0, MTEN buffer, 25 °C.
The target of test [2] is T1, S. pneumoniae DHFR (Streptococcus pneumoniae serotype 4, UniProt Q54801, A78V/I100L/K60Q/V77A).
T1 sequence (Q54801 1-168 K60Q/V77A/A78V/I100L): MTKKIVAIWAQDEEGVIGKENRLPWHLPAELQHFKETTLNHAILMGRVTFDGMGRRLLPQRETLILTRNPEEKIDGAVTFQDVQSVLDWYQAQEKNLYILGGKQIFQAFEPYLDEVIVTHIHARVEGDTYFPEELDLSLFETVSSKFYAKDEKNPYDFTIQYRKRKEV
As to conditions: pH 7.0, MTEN buffer, 25 °C.

Test [3] deals with E. coli DHFR. As to conditions: cited from earlier work.
The target in test [4] is T1, S. pneumoniae DHFR. The experiment in a line: Stopped-flow binding kinetics. As to conditions: MTEN buffer, 25 °C, relaxation method.
Test [5] deals with T1, S. pneumoniae DHFR. The experiment in a line: Equilibrium fluorescence quenching titration, spDHFR. In kind it is binding. The settings on record: read-out: Kd (NADPH), pH 7.0, MTEN buffer.
Test [6] deals with E. coli DHFR. The settings on record: cited from earlier work. This is another data set of the same source.
In test [7] the test system is E. coli DHFR (wt). As to conditions: read-out: Kd (NADPH); pH 7.0; cited from earlier work.
In test [8] the target is T2, Sp9 mutant DHFR (Streptococcus pneumoniae serotype 4, UniProt Q54801, A149T/E133A/H26Y/I100V/Q81H/Q91S).
T2 sequence (Q54801 1-168 H26Y/Q81H/Q91S/I100V/E133A/A149T): T1 sequence (Q54801 1-168 K60Q/V77A/A78V/I100L) with H26Y, Q60K, A77V, V78A, Q81H, Q91S, L100V, E133A, A149T
The experiment in a line: Equilibrium fluorescence quenching titration, Sp9. In kind it is binding. As to conditions: read-out: Kd (NADPH), pH 7.0, MTEN buffer.

Test [9] has as its system Bacterial DHFRs. The settings on record: cited from earlier work.

Turning to `Nc1nc(=O)c2c([nH]1)NCC(CNc1ccc(C(=O)N[C@@H](CCC(=O)O)C(=O)O)cc1)=N2` [H2F, 7,8-dihydrofolate], the values for the Km in test [1] (read-out: KM (H2F)), in [2] (read-out: KM (H2F)) and in test [3] (read-out: KM (H2F)) were less than 0.63 µM, 4.4 ± 0.95 µM and 0.7 µM, respectively.

As for `NC(=O)C1=CN([C@@H]2O[C@H](COP(=O)(O)OP(=O)(O)OC[C@H]3O[C@@H](n4cnc5c(N)ncnc54)[C@H](OP(=O)(O)O)[C@@H]3O)[C@@H](O)[C@H]2O)C=CC1` [NADPH, nicotinamide adenine dinucleotide phosphate (reduced form)], the Km – broadly, the concentration of substrate that gives half-maximal velocity – in test [1] (read-out: KM (NADPH)) was 0.75 ± 0.3 µM; in [2] (read-out: KM (NADPH)), 15.7 ± 4.6 µM; in [3] (read-out: KM (NADPH)), 4.8 µM. Moreover, the “koff (NADPH)” value in test [4] is 18.0 ± 3.2 s⁻¹; in test [6] it was 3.5 ^* s^−1. For the same compound, the “kon (NADPH)” value in test [4] is 11.9 ± 1.4 μM ^−1s^−1; in test [6], 20.0 ^* μM ^−1s^−1. Besides, the figures for the Kd in test [5], in test [7] and in test [8] were 210 ± 13 nM, 330 nM and 160 ± 58 nM, respectively.

In the case of `COc1cc(Cc2cnc(N)nc2N)cc(OC)c1OC` [Trimethoprim], the TMP binding in [9] (bacterial DHFRs) is given as 0.08 nM. Also, the “tighter binding to bacterial DHFRs than human DHFR” value in [9] (bacterial versus human DHFR) is 2500 fold.
